Assay results reported in patent publication EP0632029A1, “Benzylidene hydantoin derivative, ultraviolet ray absorbent and external preparation for skin including the same” (SHISEIDO COMPANY LIMITED, priority 1993, dated 1995).

Columns and labels:
Assay type in all cases: physicochemical
Solubility = assay: Solubility
[1] = Reaction with metal ion (colour change after FeCl₃); conditions: for color of the solution BEFORE ADDING FeCl₃: 0.1g in 10 ml of 99.5% ethyl alcohol; for color change of the solution AFTER ADDING FeCl₃: 0.1g in 10 ml of 99.5% ethyl alcohol plus 2 ml of 0.02% FeCl₃
Experimental: Reactivities with trivalent iron ion of the following compounds 1 to 3 as examples of the benzylidene hydantoin derivative and 2-hydroxy-4-methoxybenzophenone (comparison 1) and 2-hydroxy-5-methylphenylbenzotriazol (comparison 2) were tested. (Method)
0.1g of each compounds were dissolved in 10 ml of 99.5% ethyl alcohol and added 2 ml of 0.02% FeCl₃ (99.5% ethyl alcohol solution), respectively. After stirring, color change of the solution were observed.

[2] = UV absorption maximum in ethanol (characterisation of the examples); conditions: for ε: at λmax
[3] = Ultraviolet ray absorption, 10ppm in ethanol, spectrophotometer; conditions: 10ppm in ethanol (99.5%), quartz cell 10mm
Experimental: Ultraviolet ray absorptivities of the compound 1, 3 and comparison (2-hydroxy-4-methoxybenzophenone; UV-A absorbent) were measured according to the following method.
The compound 1, 3 and the comparison compound were dissolved in ethanol (99.5%) so as to the concentration be 10ppm, and absorption were measured by using quartz cell (10mm×10mm) and the spectrophotometer UVIDEC-610 (JASCO CORPORATION).

SMILES	Solubility (Solubility; CETYL-2-ETHYLHEXANOATE)	Solubility (Solubility; ETHANOL(99.5%))	Solubility (Solubility; OLIVE OIL)	color of the solution BEFORE ADDING FeCl₃ [1]	color change of the solution AFTER ADDING FeCl₃ [1]	λmax (ethanol) [2]	ε [2]	absorption ([3]; WAVELENGTH 300 nm)	absorption ([3]; WAVELENGTH 310 nm)	absorption ([3]; WAVELENGTH 320 nm)	absorption ([3]; WAVELENGTH 330 nm)	absorption ([3]; WAVELENGTH 340 nm)	absorption ([3]; WAVELENGTH 350 nm)	absorption ([3]; WAVELENGTH 360 nm)	absorption ([3]; WAVELENGTH 370 nm)	absorption ([3]; WAVELENGTH 380 nm)
CCCCCCCCN1C(=O)NC(=Cc2ccc(OC)cc2)C1=O [COM. 1, 5-(4-methoxybenzylidene)-3-n-octyl hydantoin, reference compound]	0.2%	0.65%	0.4%	LIGHT YELLOW	BROWNING	–	–	–	–	–	–	–	–	–	–	–
COc1ccc(C=C2NC(=O)N(CCCCCCCCCCCCCCCC(C)C)C2=O)cc1 [compound 2, 5-(4-METHOXYBENZYLIDENE)-3-[…]]	14%	4.0%	17%	COLORLESS OR LIGHT YELLOW	NO CHANGE	334 nm	31,500	–	–	–	–	–	–	–	–	–
CCCCC(CC)COc1ccc(C=C2NC(=O)N(CC(CC)CCCC)C2=O)cc1 (centres unmarked) [COMPOUND 3, 5-[4-(2-ETHYLHEXYLOXY)BENZYLIDENE]-3-(2-ETHYLEXYL) HYDANTOIN]	4%	1.4%	7%	COLORLESS OR LIGHT YELLOW	NO CHANGE	336 nm	32,500	0.24	0.39	0.55	0.73	0.76	0.68	0.40	0.14	0.03
COc1ccc(C(=O)c2ccccc2)c(O)c1 [COMPARISON, 2-hydroxy-4-methoxybenzophenone, reference compound]	–	–	–	–	–	–	–	0.39	0.35	0.40	0.42	0.34	0.20	0.11	0.03	0.00
CCCCC(CC)CN1C(=O)NC(=Cc2ccc(OC)cc2)C1=O (centres unmarked) [COMPOUND 1, 5-(4-METHOXYBENZYLIDENE)-3-(2-ETHYLHEXYL) HYDANTOIN]	2.1%	1.2%	3.2%	COLORLESS OR LIGHT YELLOW	NO CHANGE	334 nm	32,000	0.36	0.53	0.74	0.95	0.94	0.80	0.40	0.10	0.02
